In US10364245B2 (CHIESI FARMACEUTICI S.p.A., priority 2017, dated 2019):
Counter-ions that a name gives are not always drawn.

What was measured:
p38 alpha = molecular target: T1, p38 alpha (Homo sapiens, UniProt Q16539); experiment: P38 alpha enzyme inhibition assay (Alphascreen kinase activity assay); type: biochemical; settings: 100 pM p38 alpha, 2 hours preincubation at 25° C., 250 μM ATP, ATF-2 fusion protein; read-out: p38α inhibition
T1 construct: purchased Invitrogen PV3304
Outline: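 Phosphorylation of ATF-2 fusion protein (0.3 μg/ml) read by AlphaScreen with anti-phospho-ATF2 antibody after 1 h kinase reaction at 25 °C, initiated by 250 μM ATP. Compounds first incubated 2 h at 25 °C with 100 pM p38 alpha in pH 7.5 HEPES buffer, 1% DMSO. IC50 derived from concentration-response data.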

[1] = system: Peripheral Blood Mononuclear Cells (PBMCs), TNFα release; experiment: LPS-stimulated PBMC TNFα release assay; type: cell-based; settings: human PBMC, LPS (10 ng/ml), 18 h, compound 1 h before LPS; read-out: LPS-stimulated PBMC TNFα release inhibition
Outline: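 TNFα in cell-free supernatant, read on MSD plates, gave % inhibition curves and IC50 (≥3 separate experiments). Healthy-donor PBMCs had 1 h compound exposure at 37 °C in 1% FBS medium, then 18 h stimulation with 10 ng/ml LPS, after a 3 h serum-free rest.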

T1 sequence (Q16539 whole entry, the tested form may be a part): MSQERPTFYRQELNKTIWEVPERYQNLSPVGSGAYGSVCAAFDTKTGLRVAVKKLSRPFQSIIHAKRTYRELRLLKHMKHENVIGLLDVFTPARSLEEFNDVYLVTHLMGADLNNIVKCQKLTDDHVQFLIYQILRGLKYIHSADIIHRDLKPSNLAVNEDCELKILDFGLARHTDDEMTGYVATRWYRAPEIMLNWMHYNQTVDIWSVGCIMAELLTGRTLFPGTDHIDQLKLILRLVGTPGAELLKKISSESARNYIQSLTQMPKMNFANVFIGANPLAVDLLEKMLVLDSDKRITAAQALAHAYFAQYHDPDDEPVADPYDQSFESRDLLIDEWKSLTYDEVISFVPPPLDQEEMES

Row | IC50 (p38 alpha) [nM] | SMILES | IC50 [1] [nM]
1 | < 1 | CC[C@H](C)c1nnc2ccc(O[C@@H]3CC[C@H](NC(=O)Nc4cc(C(C)(C)C)nc(C(=O)NCCN(C)C)n4)c4ccccc43)cn12 [Example 100, 4-(tert-butyl)-6-(3-((1S,4R)-4-((3-((S)-sec-butyl)-[1,2,4]triazolo[4,3-a]pyridin-6-yl)oxy)-1,2,3,4-tetrahydronaphthalen-1-yl)ureido)-N-(2-(dimethylamino)ethyl)-pyrimidine-2-carboxamide] | 1 to 5
2 | < 1 | CC[C@H](C)c1nnc2ccc(O[C@@H]3CC[C@H](NC(=O)Nc4cc(C(C)(C)C)nc(C(=O)NCCN5CCOCC5)n4)c4ccccc43)cn12 [Example 102, 4-(tert-butyl)-6-(3-((1S,4R)-4-((3-((S)-sec-butyl)-[1,2,4]triazolo[4,3-a]pyridin-6-yl)oxy)-1,2,3,4-tetrahydronaphthalen-1-yl)ureido)-N-(2-morpholinoethyl)-pyrimidine-2-carboxamide] | > 5
3 | 1 to 10 | CC(C)(C)c1cc(NC(=O)N[C@H]2CC[C@@H](Oc3ccc4nnc(C(C)(C)C)n4c3)c3ccccc32)nc(CNC(=O)CCN2CCOCC2)n1 [Example 103, N-((4-(tert-butyl)-6-(3-((1S,4R)-4-((3-(tert-butyl)-[1,2,4]-triazolo[4,3-a]pyridin-6-yl)oxy)-1,2,3,4-tetrahydronaphthalen-1-yl)ureido)pyrimidin-2-yl)methyl)-3-morpholinopropanamide] | > 5
4 | 1 to 10 | COC1CN(CCNC(=O)c2nc(NC(=O)N[C@H]3CC[C@@H](Oc4ccc5nnc(C(C)(C)C)n5c4)c4ccccc43)cc(C(C)(C)C)n2)C1 [Example 104, 4-(tert-butyl)-6-(3-((1S,4R)-4-((3-(tert-butyl)-[1,2,4]triazolo[4,3-a]pyridin-6-yl)oxy)-1,2,3,4-tetrahydronaphthalen-1-yl)ureido)-N-(2-(3-methoxyazetidin-1-yl)ethyl)pyrimidine-2-carboxamide] | < 1
5 | < 1 | CC[C@H](C)c1nnc2ccc(O[C@@H]3CC[C@H](NC(=O)Nc4cc(C(C)(C)C)nc(C(=O)NCCN(C)CCOC)n4)c4ccccc43)cn12 [Example 105, 4-(tert-butyl)-6-(3-((1S,4R)-4-((3-((S)-sec-butyl)-[1,2,4]triazolo[4,3-a]pyridin-6-yl)oxy)-1,2,3,4-tetrahydronaphthalen-1-yl)ureido)-N-(2-((2-methoxyethyl)(methyl)-amino)ethyl)pyrimidine-2-carboxamide] | 1 to 5
6 | < 1 | CN(CCNC(=O)c1nc(NC(=O)N[C@H]2CC[C@@H](Oc3ccc4nnc(C(C)(C)C)n4c3)c3ccccc32)cc(C(C)(C)C)n1)C1COC1 [Example 107, 4-(tert-butyl)-6-(3-((1S,4R)-4-((3-(tert-butyl)-[1,2,4]triazolo[4,3-a]pyridin-6-yl)oxy)-1,2,3,4-tetrahydronaphthalen-1-yl)ureido)-N-(2-(methyl(oxetan-3-yl)amino)ethyl)-pyrimidine-2-carboxamide] | > 5
7 | < 1 | CC(C)(C)c1cc(NC(=O)N[C@H]2CC[C@@H](Oc3ccc4nnc(C(C)(C)C)n4c3)c3ccccc32)nc(C(=O)NCCN2CCC(O)CC2)n1 [Example 108, 4-(tert-butyl)-6-(3-((1S,4R)-4-((3-(tert-butyl)-[1,2,4]triazolo[4,3-a]pyridin-6-yl)oxy)-1,2,3,4-tetrahydronaphthalen-1-yl)ureido)-N-(2-(4-hydroxypiperidin-1-yl)ethyl)pyrimidine-2-carboxamide] | > 5
8 | < 1 | CC(C)(C)c1cc(NC(=O)N[C@H]2CC[C@@H](Oc3ccc4nnc(C5(C)CCC5)n4c3)c3ccccc32)nc(C(=O)NCCN2CCOCC2)n1 [Example 109, 4-(tert-butyl)-6-(3-((1S,4R)-4-((3-(1-methylcyclobutyl)-[1,2,4]triazolo[4,3-a]pyridin-6-yl)oxy)-1,2,3,4-tetrahydronaphthalen-1-yl)ureido)-N-(2-morpholinoethyl)-pyrimidine-2-carboxamide] | > 5
9 | 1 to 10 | CN1CCC[C@H]1C(=O)NCc1nc(NC(=O)N[C@H]2CC[C@@H](Oc3ccc4nnc(C(C)(C)C)n4c3)c3ccccc32)cc(C(C)(C)C)n1 [Example 110, (S)-N-((4-(tert-butyl)-6-(3-((1S,4R)-4-((3-(tert-butyl)-[1,2,4]triazolo[4,3-a]pyridin-6-yl)oxy)-1,2,3,4-tetrahydronaphthalen-1-yl)ureido)pyrimidin-2-yl)methyl)-1-methylpyrrolidine-2-carboxamide] | 1 to 5
10 | < 1 | CC(C)(C)c1cc(NC(=O)N[C@H]2CC[C@@H](Oc3ccc4nnc(C(C)(C)C)n4c3)c3ccccc32)nc(C(=O)NCCCN2CCCOCC2)n1 [Example 111, N-(3-(1,4-Oxazepan-4-yl)propyl)-4-(tert-butyl)-6-(3-((1S,4R)-4-((3-(tert-butyl)-[1,2,4]triazolo[4,3-a]pyridin-6-yl)oxy)-1,2,3,4-tetrahydronaphthalen-1-yl)ureido)pyrimidine-2-carboxamide partial formate salt] | > 5
11 | 1 to 10 | CN(C)CC(C)(C)NC(=O)c1nc(NC(=O)N[C@H]2CC[C@@H](Oc3ccc4nnc(C(C)(C)C)n4c3)c3ccccc32)cc(C(C)(C)C)n1 [Example 112, 4-(tert-butyl)-6-(3-((1S,4R)-4-((3-(tert-butyl)-[1,2,4]triazolo[4,3-a]pyridin-6-yl)oxy)-1,2,3,4-tetrahydronaphthalen-1-yl)ureido)-N-(1-(dimethylamino)-2-methylpropan-2-yl)pyrimidine-2-carboxamide] | 1 to 5
12 | 1 to 10 | CC(C)(C)c1cc(NC(=O)N[C@H]2CC[C@@H](Oc3ccc4nnc(C(C)(C)C)n4c3)c3ccccc32)nc(CN2CCNC(=O)C2)n1 [Example 113, 1-(6-(tert-Butyl)-2-((3-oxopiperazin-1-yl)methyl)pyrimidin-4-yl)-3-((1S,4R)-4-((3-(tert-butyl)-[1,2,4]-triazolo[4,3-a]pyridin-6-yl)oxy)-1,2,3,4-tetrahydronaphthalen-1-yl)urea partial formate salt] | > 5
13 | < 1 | CCN(C)CCNC(=O)c1nc(NC(=O)N[C@H]2CC[C@@H](Oc3ccc4nnc(C(C)(C)C)n4c3)c3ccccc32)cc(C(C)(C)C)n1 [Example 114, 4-(tert-butyl)-6-(3-((1S,4R)-4-((3-(tert-butyl)-[1,2,4]triazolo[4,3-a]pyridin-6-yl)oxy)-1,2,3,4-tetrahydronaphthalen-1-yl)ureido)-N-(2-(ethyl(methyl)amino)-ethyl)pyrimidine-2-carboxamide] | < 1
14 | < 1 | CN(C)C(C)(C)CNC(=O)c1nc(NC(=O)N[C@H]2CC[C@@H](Oc3ccc4nnc(C(C)(C)C)n4c3)c3ccccc32)cc(C(C)(C)C)n1 [Example 117, 4-(tert-butyl)-6-(3-((1S,4R)-4-((3-(tert-butyl)-[1,2,4]triazolo[4,3-a]pyridin-6-yl)oxy)-1,2,3,4-tetrahydronaphthalen-1-yl)ureido)-N-(2-(dimethylamino)-2-methylpropyl)pyrimidine-2-carboxamide] | < 1
15 | 1 to 10 | CN(C)CCCNC(=O)c1nc(NC(=O)N[C@H]2CC[C@@H](Oc3ccc4nnc(C(C)(C)C)n4c3)c3ccccc32)cc(C(C)(C)C)n1 [Example 118, 4-(tert-butyl)-6-(3-((1S,4R)-4-((3-(tert-butyl)-[1,2,4]triazolo[4,3-a]pyridin-6-yl)oxy)-1,2,3,4-tetrahydronaphthalen-1-yl)ureido)-N-(3-(dimethylamino)-propyl)pyrimidine-2-carboxamide] | 1 to 5
16 | < 1 | CN1CCN(CCNC(=O)c2nc(NC(=O)N[C@H]3CC[C@@H](Oc4ccc5nnc(C(C)(C)C)n5c4)c4ccccc43)cc(C(C)(C)C)n2)CC1 [Example 119, 4-(tert-butyl)-6-(3-((1S,4R)-4-((3-(tert-butyl)-[1,2,4]triazolo[4,3-a]pyridin-6-yl)oxy)-1,2,3,4-tetrahydronaphthalen-1-yl)ureido)-N-(2-(4-methylpiperazin-1-yl)ethyl)pyrimidine-2-carboxamide] | > 5
17 | < 1 | CC(C)(C)c1cc(NC(=O)N[C@H]2CC[C@@H](Oc3ccc4nnc(C(C)(C)C)n4c3)c3ccccc32)nc(C(=O)NCCN(CCO)CCO)n1 [Example 120, N-(2-(bis(2-hydroxyethyl)amino)ethyl)-4-(tert-butyl)-6-(3-((1S,4R)-4-((3-(tert-butyl)-[1,2,4]triazolo[4,3-a]pyridin-6-yl)oxy)-1,2,3,4-tetrahydronaphthalen-1-yl)ureido)pyrimidine-2-carboxamide] | > 5
18 | < 1 | COCC(C)(C)c1nnc2ccc(O[C@@H]3CC[C@H](NC(=O)Nc4cc(C(C)(C)C)nc(C(=O)NCCCN5CCOCC5)n4)c4ccccc43)cn12 [Example 121, 4-(tert-butyl)-6-(3-((1S,4R)-4-((3-(1-methoxy-2-methylpropan-2-yl)-[1,2,4]triazolo[4,3-a]pyridin-6-yl)oxy)-1,2,3,4-tetrahydronaphthalen-1-yl)ureido)-N-(3-morpholinopropyl)-pyrimidine-2-carboxamide] | 1 to 5
19 | < 1 | COCC(C)(C)c1nnc2ccc(O[C@@H]3CC[C@H](NC(=O)Nc4cc(C(C)(C)C)nc(C(=O)NCCN5CCCOCC5)n4)c4ccccc43)cn12 [Example 122, N-(2-(1,4-oxazepan-4-yl)ethyl)-4-(tert-butyl)-6-(3-((1S,4R)-4-((3-(1-methoxy-2-methylpropan-2-yl)-[1,2,4]triazolo[4,3-a]pyridin-6-yl)oxy)-1,2,3,4-tetrahydronaphthalen-1-yl)ureido)pyrimidine-2-carboxamide] | 1 to 5
